Measurements published in ChEMBL document CHEMBL4507300 (2021).

Assays:
[1] = target: MAP/microtubule affinity-regulating kinase 4 (Homo sapiens) (UniProt Q96L34); details: Compound concentration 1000.0 nM
[2] = target: Death-associated protein kinase 2 (Homo sapiens) (UniProt Q9UIK4); details: Compound concentration 1000.0 nM
[3] = target: Cyclin-dependent kinase 15 (Homo sapiens) (UniProt Q96Q40); details: Compound concentration 1000.0 nM
[4] = target: Serine/threonine-protein kinase Nek4 (Homo sapiens) (UniProt P51957); details: Compound concentration 1000.0 nM
[5] = target: 5-hydroxytryptamine receptor 1D (Homo sapiens) (UniProt P28221); details: Compound concentration 10.0 uM
Sequence of 5-hydroxytryptamine receptor 1D (Homo sapiens) (P28221 whole entry): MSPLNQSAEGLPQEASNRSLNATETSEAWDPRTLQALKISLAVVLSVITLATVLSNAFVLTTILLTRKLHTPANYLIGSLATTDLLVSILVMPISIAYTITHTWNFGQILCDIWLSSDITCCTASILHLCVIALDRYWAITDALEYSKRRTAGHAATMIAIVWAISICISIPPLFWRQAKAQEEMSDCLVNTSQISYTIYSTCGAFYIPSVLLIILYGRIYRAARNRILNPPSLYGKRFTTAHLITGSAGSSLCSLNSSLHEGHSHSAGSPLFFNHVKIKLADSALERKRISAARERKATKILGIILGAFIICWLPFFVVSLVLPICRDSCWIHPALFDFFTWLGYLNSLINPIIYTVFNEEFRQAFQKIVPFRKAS

[6] = target: Serine/threonine-protein kinase Nek6 (Homo sapiens) (UniProt Q9HC98); details: Compound concentration 1000.0 nM
[7] = system: Epidermal growth factor receptor (Homo sapiens), P00533 [L858R,T790M]; details: Compound concentration 1000.0 nM
[8] = target: Ephrin type-A receptor 1 (Homo sapiens) (UniProt P21709); details: Compound concentration 1000.0 nM
Sequence of Ephrin type-A receptor 1 (Homo sapiens) (P21709 whole entry): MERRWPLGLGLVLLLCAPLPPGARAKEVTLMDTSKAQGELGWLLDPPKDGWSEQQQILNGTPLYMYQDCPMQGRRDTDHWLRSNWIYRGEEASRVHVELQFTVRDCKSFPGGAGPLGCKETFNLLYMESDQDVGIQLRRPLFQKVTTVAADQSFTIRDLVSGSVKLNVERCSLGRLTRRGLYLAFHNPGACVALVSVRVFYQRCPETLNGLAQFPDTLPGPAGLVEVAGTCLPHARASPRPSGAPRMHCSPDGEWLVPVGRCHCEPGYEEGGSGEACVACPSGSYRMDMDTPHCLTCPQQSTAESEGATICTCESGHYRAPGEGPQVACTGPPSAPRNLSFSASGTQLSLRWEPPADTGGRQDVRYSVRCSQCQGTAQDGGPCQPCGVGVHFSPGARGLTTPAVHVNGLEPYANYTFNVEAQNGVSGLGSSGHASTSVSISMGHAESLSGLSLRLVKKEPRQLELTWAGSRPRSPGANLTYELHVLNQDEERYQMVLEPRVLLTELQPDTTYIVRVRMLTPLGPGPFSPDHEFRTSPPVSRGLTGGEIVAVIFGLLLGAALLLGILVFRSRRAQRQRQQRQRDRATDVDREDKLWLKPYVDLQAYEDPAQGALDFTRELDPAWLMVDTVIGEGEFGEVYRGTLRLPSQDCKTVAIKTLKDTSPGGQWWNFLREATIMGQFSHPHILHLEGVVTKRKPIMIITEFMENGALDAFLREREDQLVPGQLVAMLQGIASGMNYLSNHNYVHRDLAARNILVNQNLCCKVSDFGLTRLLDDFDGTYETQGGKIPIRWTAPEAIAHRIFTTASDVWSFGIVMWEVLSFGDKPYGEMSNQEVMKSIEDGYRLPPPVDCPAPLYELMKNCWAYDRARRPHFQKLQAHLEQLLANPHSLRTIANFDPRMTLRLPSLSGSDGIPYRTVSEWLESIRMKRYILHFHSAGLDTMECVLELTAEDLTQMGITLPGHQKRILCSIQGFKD

[9] = target: Mu-type opioid receptor (Homo sapiens) (UniProt P35372); details: Compound concentration 10.0 uM
[10] = target: Serine/threonine-protein kinase WNK2 (Homo sapiens) (UniProt Q9Y3S1); details: Compound concentration 1000.0 nM
[11] = target: Muscarinic acetylcholine receptor M1 (Homo sapiens) (UniProt P11229); details: Compound concentration 10.0 uM
[12] = target: Protein kinase C delta type (Homo sapiens) (UniProt Q05655); details: Compound concentration 1000.0 nM
[13] = system: Tyrosine-protein kinase ABL1 (Homo sapiens), P00519 [Q252H]; details: Compound concentration 1000.0 nM
[14] = target: Myosin light chain kinase 2, skeletal/cardiac muscle (Homo sapiens) (UniProt Q9H1R3); details: Compound concentration 1000.0 nM
[15] = target: Citron Rho-interacting kinase (Homo sapiens) (UniProt O14578); details: Compound concentration 1000.0 nM
[16] = target: Alpha-2A adrenergic receptor (Homo sapiens) (UniProt P08913); details: Compound concentration 10.0 uM
[17] = target: Serine/threonine-protein kinase 24 (Homo sapiens) (UniProt Q9Y6E0); details: Compound concentration 1000.0 nM
[18] = target: Tyrosine-protein kinase JAK2 (Homo sapiens) (UniProt O60674); details: Compound concentration 1000.0 nM
[19] = target: Tyrosine-protein kinase Mer (Homo sapiens) (UniProt Q12866); details: Compound concentration 1000.0 nM
[20] = target: Ephrin type-A receptor 7 (Homo sapiens) (UniProt Q15375); details: Compound concentration 1000.0 nM
[21] = target: Death-associated protein kinase 1 (Homo sapiens) (UniProt P53355); details: Compound concentration 1000.0 nM
[22] = target: Phosphatidylinositol 4-phosphate 5-kinase type-1 alpha (Homo sapiens) (UniProt Q99755); details: Compound concentration 1000.0 nM
[23] = target: Insulin receptor (Homo sapiens) (UniProt P06213); details: Compound concentration 1000.0 nM
Sequence of Insulin receptor (Homo sapiens) (P06213 28-758 limits assumed): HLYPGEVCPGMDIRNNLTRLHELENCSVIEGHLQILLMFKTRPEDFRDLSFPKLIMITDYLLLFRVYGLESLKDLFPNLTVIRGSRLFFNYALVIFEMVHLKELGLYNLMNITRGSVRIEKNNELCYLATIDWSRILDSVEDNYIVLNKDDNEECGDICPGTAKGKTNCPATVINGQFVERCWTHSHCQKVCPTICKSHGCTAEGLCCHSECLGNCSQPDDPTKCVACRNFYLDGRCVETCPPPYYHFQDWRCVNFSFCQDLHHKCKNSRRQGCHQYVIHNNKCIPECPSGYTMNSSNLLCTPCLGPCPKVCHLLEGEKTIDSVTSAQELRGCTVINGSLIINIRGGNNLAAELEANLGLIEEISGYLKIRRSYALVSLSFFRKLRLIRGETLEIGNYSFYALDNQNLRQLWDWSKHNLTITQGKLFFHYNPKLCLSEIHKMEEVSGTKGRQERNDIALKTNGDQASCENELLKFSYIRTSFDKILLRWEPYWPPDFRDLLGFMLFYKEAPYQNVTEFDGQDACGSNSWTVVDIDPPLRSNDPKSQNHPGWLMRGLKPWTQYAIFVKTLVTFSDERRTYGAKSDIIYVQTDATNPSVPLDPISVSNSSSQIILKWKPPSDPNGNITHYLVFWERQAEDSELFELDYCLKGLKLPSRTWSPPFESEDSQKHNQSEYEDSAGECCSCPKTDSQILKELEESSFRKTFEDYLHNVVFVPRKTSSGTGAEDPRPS
Sequence of Insulin receptor (Homo sapiens) (P06213 763-1382 limits assumed): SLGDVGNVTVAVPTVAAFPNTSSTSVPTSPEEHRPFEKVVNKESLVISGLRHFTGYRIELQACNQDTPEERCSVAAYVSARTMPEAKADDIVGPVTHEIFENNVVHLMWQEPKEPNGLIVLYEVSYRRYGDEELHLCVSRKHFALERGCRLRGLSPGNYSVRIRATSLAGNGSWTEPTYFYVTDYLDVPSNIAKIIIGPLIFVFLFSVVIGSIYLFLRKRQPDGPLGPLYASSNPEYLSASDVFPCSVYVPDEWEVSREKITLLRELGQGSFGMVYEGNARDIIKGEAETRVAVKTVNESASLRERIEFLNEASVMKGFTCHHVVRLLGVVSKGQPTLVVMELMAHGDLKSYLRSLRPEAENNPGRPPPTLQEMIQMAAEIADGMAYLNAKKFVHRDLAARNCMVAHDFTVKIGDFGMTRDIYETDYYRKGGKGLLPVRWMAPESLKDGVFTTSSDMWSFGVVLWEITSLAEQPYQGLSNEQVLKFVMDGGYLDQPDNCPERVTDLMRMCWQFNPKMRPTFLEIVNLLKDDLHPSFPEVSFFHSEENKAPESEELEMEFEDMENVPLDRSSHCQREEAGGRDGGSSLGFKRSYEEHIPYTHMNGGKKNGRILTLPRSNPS

[24] = target: Activin receptor type-1-like (Homo sapiens) (UniProt P37023); details: Compound concentration 1000.0 nM
[25] = target: Ribosomal protein S6 kinase alpha-2 (Homo sapiens) (UniProt Q15349); details: Compound concentration 1000.0 nM
[26] = target: Receptor-interacting serine/threonine-protein kinase 1 (Homo sapiens) (UniProt Q13546); details: Compound concentration 1000.0 nM
[27] = system: Tyrosine-protein kinase ABL1 (Homo sapiens), P00519 [H396P]; details: Compound concentration 1000.0 nM
[28] = target: TGF-beta receptor type-1 (Homo sapiens) (UniProt P36897); details: Compound concentration 1000.0 nM
[29] = target: Cyclin-dependent kinase 2 homolog (Plasmodium falciparum (isolate 3D7)) (UniProt P61075); details: Compound concentration 1000.0 nM
Sequence of Cyclin-dependent kinase 2 homolog (Plasmodium falciparum (isolate 3D7)) (P61075 whole entry): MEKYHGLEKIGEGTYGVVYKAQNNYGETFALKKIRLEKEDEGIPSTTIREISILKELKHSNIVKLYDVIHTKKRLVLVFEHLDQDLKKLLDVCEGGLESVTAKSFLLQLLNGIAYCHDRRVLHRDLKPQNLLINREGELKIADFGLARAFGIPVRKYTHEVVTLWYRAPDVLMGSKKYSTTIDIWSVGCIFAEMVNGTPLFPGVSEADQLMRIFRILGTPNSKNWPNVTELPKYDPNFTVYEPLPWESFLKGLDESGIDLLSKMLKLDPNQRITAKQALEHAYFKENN

[30] = target: Ribosomal protein S6 kinase alpha-1 (Homo sapiens) (UniProt Q15418); details: Compound concentration 1000.0 nM
[31] = target: Serine/threonine-protein kinase Chk1 (Homo sapiens) (UniProt O14757); details: Compound concentration 1000.0 nM
[32] = target: Sigma intracellular receptor 2 (Homo sapiens, UniProt Q5BJF2); test: GPCRScan assay: inhibition of Sigma 2; parameters: radioligand conc. used [nm] 5.0, parental cells HEKT
Sequence of Sigma intracellular receptor 2 (Q5BJF2 whole entry): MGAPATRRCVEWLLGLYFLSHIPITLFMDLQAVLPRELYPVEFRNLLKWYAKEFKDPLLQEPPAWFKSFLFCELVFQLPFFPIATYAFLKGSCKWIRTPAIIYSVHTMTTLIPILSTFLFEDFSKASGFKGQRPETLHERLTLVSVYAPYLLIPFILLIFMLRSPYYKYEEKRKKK

[33] = target: Tyrosine-protein kinase SYK (Homo sapiens) (UniProt P43405); details: Compound concentration 1000.0 nM
[34] = target: D(1B) dopamine receptor (Homo sapiens) (UniProt P21918); details: Compound concentration 10.0 uM
Sequence of D(1B) dopamine receptor (Homo sapiens) (P21918 whole entry): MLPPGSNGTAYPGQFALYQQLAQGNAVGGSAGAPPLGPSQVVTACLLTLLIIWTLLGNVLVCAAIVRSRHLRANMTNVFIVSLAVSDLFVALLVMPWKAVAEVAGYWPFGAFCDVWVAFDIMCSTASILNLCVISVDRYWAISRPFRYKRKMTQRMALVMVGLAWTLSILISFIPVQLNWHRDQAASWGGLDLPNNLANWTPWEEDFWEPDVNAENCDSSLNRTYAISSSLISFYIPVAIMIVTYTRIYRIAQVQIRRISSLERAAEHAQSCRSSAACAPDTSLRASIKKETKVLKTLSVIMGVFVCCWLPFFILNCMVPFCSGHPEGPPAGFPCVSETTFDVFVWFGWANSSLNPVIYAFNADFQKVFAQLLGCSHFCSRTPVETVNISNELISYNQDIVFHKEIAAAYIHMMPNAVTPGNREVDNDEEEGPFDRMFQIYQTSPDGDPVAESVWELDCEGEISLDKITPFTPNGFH

[35] = target: STE20/SPS1-related proline-alanine-rich protein kinase (Homo sapiens) (UniProt Q9UEW8); details: Compound concentration 1000.0 nM
[36] = target: NUAK family SNF1-like kinase 1 (Homo sapiens) (UniProt O60285); details: Compound concentration 1000.0 nM
[37] = target: Activin receptor type-2B (Homo sapiens) (UniProt Q13705); details: Compound concentration 1000.0 nM
[38] = target: Testis-specific serine/threonine-protein kinase 1 (Homo sapiens) (UniProt Q9BXA7); details: Compound concentration 1000.0 nM
[39] = target: Tyrosine-protein kinase ABL2 (Homo sapiens) (UniProt P42684); details: Compound concentration 1000.0 nM
[40] = target: D(1A) dopamine receptor (Homo sapiens) (UniProt P21728); details: Compound concentration 10.0 uM
Sequence of D(1A) dopamine receptor (Homo sapiens) (P21728 whole entry): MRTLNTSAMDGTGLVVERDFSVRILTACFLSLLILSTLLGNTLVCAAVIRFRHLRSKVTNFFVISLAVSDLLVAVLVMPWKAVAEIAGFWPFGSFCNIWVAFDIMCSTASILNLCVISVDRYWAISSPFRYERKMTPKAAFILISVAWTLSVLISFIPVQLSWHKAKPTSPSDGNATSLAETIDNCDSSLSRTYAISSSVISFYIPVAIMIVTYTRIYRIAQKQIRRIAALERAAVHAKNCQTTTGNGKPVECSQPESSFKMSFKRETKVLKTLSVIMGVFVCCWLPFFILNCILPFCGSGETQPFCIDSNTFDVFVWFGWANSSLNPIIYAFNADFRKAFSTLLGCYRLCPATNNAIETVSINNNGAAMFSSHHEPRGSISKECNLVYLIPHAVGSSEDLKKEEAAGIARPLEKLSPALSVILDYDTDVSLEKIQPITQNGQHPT

[41] = target: Mast/stem cell growth factor receptor Kit (Homo sapiens) (UniProt P10721); details: Compound concentration 1000.0 nM
[42] = system: Tyrosine-protein kinase ABL1 (Homo sapiens), P00519 [M351T]; details: Compound concentration 1000.0 nM
[43] = target: RAF proto-oncogene serine/threonine-protein kinase (Homo sapiens) (UniProt P04049); details: Compound concentration 1000.0 nM
Sequence of RAF proto-oncogene serine/threonine-protein kinase (Homo sapiens) (P04049 whole entry): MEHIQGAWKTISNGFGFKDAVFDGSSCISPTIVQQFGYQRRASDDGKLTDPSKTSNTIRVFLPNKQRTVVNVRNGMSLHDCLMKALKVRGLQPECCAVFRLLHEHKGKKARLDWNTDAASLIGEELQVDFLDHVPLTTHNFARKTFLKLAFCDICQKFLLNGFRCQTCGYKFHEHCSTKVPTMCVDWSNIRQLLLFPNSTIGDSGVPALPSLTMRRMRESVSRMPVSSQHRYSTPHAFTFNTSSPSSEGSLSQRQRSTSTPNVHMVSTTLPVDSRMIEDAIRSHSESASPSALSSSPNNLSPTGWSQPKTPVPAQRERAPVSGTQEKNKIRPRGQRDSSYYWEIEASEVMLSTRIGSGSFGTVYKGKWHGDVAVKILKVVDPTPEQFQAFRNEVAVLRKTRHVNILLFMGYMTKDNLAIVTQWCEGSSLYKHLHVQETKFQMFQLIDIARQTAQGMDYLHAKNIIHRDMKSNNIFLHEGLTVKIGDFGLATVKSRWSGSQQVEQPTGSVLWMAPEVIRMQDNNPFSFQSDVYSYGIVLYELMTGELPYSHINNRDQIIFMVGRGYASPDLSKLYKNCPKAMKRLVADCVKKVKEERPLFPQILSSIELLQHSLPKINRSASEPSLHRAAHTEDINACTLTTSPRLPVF

[44] = system: Epidermal growth factor receptor (Homo sapiens), P00533 [UNDEFINED MUTATION]; details: Compound concentration 1000.0 nM
[45] = target: Activin receptor type-1B (Homo sapiens) (UniProt P36896); details: Compound concentration 1000.0 nM

Q: With `COc1cccc(CNC(=O)c2nc3scc(COCc4ccc(C(=O)O)cc4)c3c(=O)[nH]2)c1` [T-26c] as the compound, how does the residual activity [1] read?
A: The residual activity was 89.2%.

Q: And the residual activity [2]?
A: The residual activity was 83.1%.

Q: And the residual activity [3]?
A: The residual activity was 97.6%.

Q: What about the residual activity [4] of the same compound?
A: Its residual activity is 83.8%.

Q: What about the inhibition [5] of the same compound?
A: Its inhibition is -1.39%.

Q: And the residual activity [6]?
A: The residual activity was 71%.

Q: What about the residual activity [7] of the same compound?
A: The residual activity was 58.6%.

Q: What about the residual activity [8] of the same compound?
A: The residual activity was 79.9%.

Q: What about the inhibition [9] of the same compound?
A: The inhibition was -3.34%.

Q: What about the residual activity [10] of the same compound?
A: The residual activity was 54.2%.

Q: And the inhibition [11]?
A: The inhibition was 53.4%.

Q: What about the residual activity [12] of the same compound?
A: Its residual activity is 87.7%.

Q: What about the residual activity [13] of the same compound?
A: Its residual activity is 91.4%.

Q: What about the residual activity [14] of the same compound?
A: The residual activity was 100%.

Q: What about the residual activity [15] of the same compound?
A: The residual activity was 100%.

Q: What about the inhibition [16] of the same compound?
A: Its inhibition is 17.2%.

Q: What about the residual activity [17] of the same compound?
A: Its residual activity is 100%.

Q: And the residual activity [18]?
A: Its residual activity is 100%.

Q: And the residual activity [19]?
A: The residual activity was 88.3%.

Q: What about the residual activity [20] of the same compound?
A: Its residual activity is 86.5%.

Q: And the residual activity [21]?
A: The residual activity was 100%.

Q: What about the residual activity [22] of the same compound?
A: Its residual activity is 100%.

Q: And the residual activity [23]?
A: The residual activity was 76.2%.

Q: And the residual activity [24]?
A: Its residual activity is 100%.

Q: What about the residual activity [25] of the same compound?
A: Its residual activity is 100%.

Q: What about the residual activity [26] of the same compound?
A: The residual activity was 97.4%.

Q: What about the residual activity [27] of the same compound?
A: The residual activity was 86.4%.

Q: What about the residual activity [28] of the same compound?
A: Its residual activity is 83.2%.

Q: And the residual activity [29]?
A: The residual activity was 72.5%.

Q: What about the residual activity [30] of the same compound?
A: The residual activity was 100%.

Q: What about the residual activity [31] of the same compound?
A: The residual activity was 95.5%.

Q: And the Ki ([32]; read-out: Ki)?
A: The Ki was 4.55 µM.

Q: What about the Ki ([32]; read-out: pKi (converted)) of the same compound?
A: The Ki was 3.98 µM.

Q: What about the residual activity [33] of the same compound?
A: The residual activity was 100%.

Q: What about the inhibition [34] of the same compound?
A: Its inhibition is 11.9%.

Q: What about the residual activity [35] of the same compound?
A: The residual activity was 100%.

Q: What about the residual activity [36] of the same compound?
A: Its residual activity is 86.6%.

Q: And the residual activity [37]?
A: The residual activity was 100%.

Q: And the residual activity [38]?
A: Its residual activity is 88.2%.

Q: And the residual activity [39]?
A: The residual activity was 82.2%.

Q: And the inhibition [40]?
A: Its inhibition is -6.24%.

Q: What about the residual activity [41] of the same compound?
A: The residual activity was 93%.

Q: And the residual activity [42]?
A: The residual activity was 84.4%.

Q: And the residual activity [43]?
A: Its residual activity is 85.6%.

Q: And the residual activity [44]?
A: Its residual activity is 98.7%.

Q: What about the residual activity [45] of the same compound?
A: Its residual activity is 89.4%.
